Where a name gives a salt, the structure may show the parent alone.
Columns and labels:
[1] = test system: HORVS = Hordeum vulgare (spring barley); test: Postemergence herbicidal safening, greenhouse, visual injury; assay type: in vivo; conditions: 20-22 d, listed as (1) TEA salt
Protocol: (§1) Seeds of the desired test plant species were planted in Sun Gro MetroMix® 306 planting mixture, which typically has a pH of 6.0 to 6.8 and an organic matter content of about 30 percent, in plastic pots with a surface area of 103.2 square centimeters (cm^2). When required to ensure good germination and healthy plants, a fungicide treatment and/or other chemical or physical treatment was applied. The plants were grown for 7-36 days (d) in a greenhouse with an approximate […] photoperiod which was maintained at about 18° C. during the day and 17° C. during the night. Nutrients and water were added on a regular basis and supplemental lighting was provided with overhead metal halide 1000-Watt lamps as necessary. The plants were employed for testing when they reached the second or third true leaf stage.
(§2) Weighed amounts of esters (methyl) or salts (TEA [triethylammonium], potassium [K]) of 4-amino-3-chloro-6-(4-chloro-2-fluoro-3-methoxyphenyl)pyridine-2-carboxylic acid (Compound 1) were dissolved in a volume of 97:3 volume/volume (v/v) acetone/dimethylsulfoxide (DMSO) to obtain stock solutions. […] The concentrated stock solutions were diluted with an aqueous mixture of 1.5% v/v of Agri-dex crop oil concentrate to provide the appropriate application rates. Compound requirements are based upon a 12 mL application volume at a rate of 187 liters per hectare (L/ha). Stocks solutions of the safeners were prepared following the same procedure. Spray solutions of the safeners and experimental compound mixtures were prepared by adding the appropriate volume of both stock solutions to the appropriate amount of dilution solution to form a 12 mL spray solution with active ingredients in two-way combinations. Formulated compounds were applied to the plant material with an overhead Mandel track sprayer equipped with 8002E nozzles calibrated to deliver 187 L/ha over an application area of 0.503 square meters (m^2) at a spray height of 18 inches (43 centimeters (cm)) above average plant canopy. Control plants were sprayed in the same manner with the solvent blank.
(§3) The treated plants and control plants were placed in a greenhouse as described above and watered by sub-irrigation to prevent wash-off of the test compounds. After 20-22 d, the condition of the test plants as compared with that of the control plants was determined visually and scored on a scale of 0 to 100 percent where 0 corresponds to no injury and 100 corresponds to complete kill.
(§4) Colby's equation was used to determine the herbicidal effects expected from the mixtures (Colby, S. R., Calculation of the synergistic and antagonistic response of herbicide combinations. Weeds 1967, 15, 20-22.).
(§5) The following equation was used to calculate the expected activity of mixtures containing two active ingredients, A and B: Expected=A+B−(A×B/100)
(§6) A=observed efficacy of active ingredient A at the same concentration as used in the mixture.
(§7) B=observed efficacy of active ingredient B at the same concentration as used in the mixture.

[2] = test system: TRZAS = Triticum aestivum (spring wheat); test: as above; assay type: in vivo; conditions: 20-22 d, listed as (1) TEA salt
Protocol: as §1, §2, §3, §4, §5, §6, §7

[3] = test system: TRZAW = Triticum aestivum (winter wheat); test: as above; assay type: in vivo; conditions: applied alone at 140 g/ha; 20-22 d; listed as (1) TEA salt
Protocol: as §1, §2, §3, §4, §5, §6, §7

[4] = test system: TRZDU = Triticum durum (durum wheat); test: as above; assay type: in vivo; conditions: applied alone at 140 g/ha; 20-22 d
Protocol: as §1, §2, §3, §4, §5, §6, §7

HORVW (winter barley) = test: as above; assay type: in vivo, Hordeum vulgare; conditions: applied alone at 140 g/ha; 20-22 d; listed as (1) TEA salt
Protocol: as §1, with “stage. […]” for “stage.”
as §3, with “kill. […]” for “kill.”

[5] = test system: KCHSC = Kochia scoparia (kochia); test: Postemergence herbicidal activity, greenhouse, visual injury; assay type: in vivo; conditions: applied alone at 140 g/ha; 20-22 d; listed as (1) TEA salt
Protocol: as §1, §2, §3, §4, §5, §6, §7

[6] = test system: MATCH = Matricaria chamomila (scented mayweed); test: as above; assay type: in vivo; conditions: applied alone at 140 g/ha; 20-22 d; listed as (1) TEA salt
Protocol: as §1, §2, §3, §4, §5, §6, §7

[7] = test system: SASKR = Salsola iberica (Russian thistle); test: as above; assay type: in vivo; conditions: applied alone at 140 g/ha; 20-22 d; listed as (1) TEA salt
Protocol: as §1, §2, §3, §4, §5, §6, §7

[8] = test system: STEME = Stellaria media (common chickweed); test: as above; assay type: in vivo; conditions: applied alone at 140 g/ha; 20-22 d
Protocol: as §1, §2, §3, §4, §5, §6, §7

[9] = test system: VERPE = Veronica persica (bird's-eye speedwell); test: as above; assay type: in vivo; conditions: applied alone at 140 g/ha; 20-22 d; listed as (1) TEA salt
Protocol: as §1, §2, §3, §4, §5, §6, §7

[10] = test system: VIOTR = Viola tricolor (wild pansy); test: as above; assay type: in vivo; conditions: applied alone at 140 g/ha; 20-22 d; listed as (1) TEA salt
Protocol: as §1, §2, §3, §4, §5, §6, §7

[11] = test system: LAMPU (purple deadnettle); test: as above; assay type: in vivo, Lamium purpureum; conditions: applied alone at 140 g/ha; 20-22 d
Protocol: as §1, §2, §3, §4, §5, §6, §7

PAPRH (corn poppy) = test: as above; assay type: in vivo, Papaver rhoeas; conditions: applied alone at 140 g/ha; 20-22 d
Protocol: as §1, §2, §3, §4, §5, §6, §7

POLCO (wild buckwheat) = test: as above; assay type: in vivo, Polygonum convolvulus; conditions: applied alone at 140 g/ha; 20-22 d
Protocol: as §1, §2, §3, §4, §5, §6, §7

COc1c(Cl)ccc(-c2cc(N)c(Cl)c(C(=O)O)n2)c1F [Compound (1) TEA salt, 4-amino-3-chloro-6-(4-chloro-2-fluoro-3-methoxyphenyl)pyridine-2-carboxylic acid]
HORVS Ob (observed injury) ([1]; applied alone at 8.75 g/ha): 25% | HORVS Ob (observed injury) ([1]; applied alone at 35 g/ha): 23% | HORVS Ob (observed injury) ([1]; applied alone at 140 g/ha): 23% | TRZAS Ob (observed injury) ([2]; applied alone at 8.75 g/ha): 5% | TRZAS Ob (observed injury) ([2]; applied alone at 35 g/ha): 15% | TRZAS Ob (observed injury) ([2]; applied alone at 70 g/ha): 10% | TRZAS Ob (observed injury) ([2]; applied alone at 140 g/ha): 27% | TRZAW Ob (observed injury) [3]: 24% | TRZDU Ob (observed injury) [4]: 10% | HORVW Ob (observed injury) (HORVW (winter barley)): 15% | KCHSC Ob (observed injury) [5]: 95% | MATCH Ob (observed injury) [6]: 84% | SASKR Ob (observed injury) [7]: 86% | STEME Ob (observed injury) [8]: 88% | VERPE Ob (observed injury) [9]: 89% | VIOTR Ob (observed injury) [10]: 66% | LAMPU Ob (observed injury) [11]: 98% | PAPRH Ob (observed injury) (PAPRH (corn poppy)): 100% | POLCO Ob (observed injury) (POLCO (wild buckwheat)): 100%
